According to US9802880B2, “Cannabigerol derivatives” (VIVACELL BIOTECHNOLOGY ESPAÑA S.L., priority 2014, dated 2017):

Columns and labels:
[1] = tested on: Ccl2, iNOs, TNFα, IFNg, IL-1b and IL-17; test: EAE, pro-inflammatory gene expression in spinal cord (real-time PCR); type: in vivo, C57BL/6 mice; settings: EAE mice, 10 mg/kg, vs EAE+vehicle, FIG. 7
Protocol: Gene expression of inflammatory markers including CCL2, IFNγ, INOS, TNFα, IL-1β and IL-17 in the spinal cord was down regulated in EAE+compound (III) (10 mg/kg) group compared with EAE+Vehicle mice. Expression levels were calculated using the 2^−ΔΔct method.
EAE was induced in female C57BL/6 mice at 6-8 weeks of age by subcutaneous immunization with myelin oligodendrocyte glycoprotein polypeptide (MOG35-55) (300 μg) and 200 μg of Mycobacterium tuberculosis (H37Ra Difco, Franklin Lakes, N.J., USA) in a 1:1 mix with […] Freund's adjuvant (CFA, Sigma-Aldrich, Madrid, Spain). […] The mice were examined daily for clinical signs of EAE and disease scores were measured as follows: 0, no disease; 1, limp tail; 2, limp tail and hind limb weakness; 3, hind limb paralysis; 4, hind limb and front limb paralysis; 5, moribund and death. […]
Total RNA was isolated from striata (3NP model) or spinal cord (EAE model) using RNeasy Lipid Tissue Mini Kit (Qiagen, GmbH). The total amount of RNA extracted was quantitated by spectrometry at 260 nm and its purity from the ratio between the absorbance values at 260 and 280 nm. […] The iQ™ SYBR Green Supermix (Bio-Rad) was used to quantify mRNA levels for COX-2, TNF-α, IL-6, IL-17, IL-1β, IFN-γ, CCL-2 or iNOS depending on disease's model. […] Expression levels were calculated using the 2^−ΔΔct method.

[2] = tested on: 3NP-lesioned mice; test: Huntington's disease 3NP model, behavioral score; type: in vivo, C57BL/6 mice; settings: 10 mg/kg i.p., four injections, FIG. 9
Protocol: Mice were subjected to behavioral tests for determining their neurological status after the treatment with compounds I (10 mg/kg) (A), III (10 mg/kg) (B) and XII (10 mg/kg) (C). Hind limb clasping, Locomotor activity, Hind limb dystonia and Truncal Dystonia were rated from 0 to 2 based on severity: a score of 0 typically indicates normal function and 2 seriously affected. Values are expressed as means±SEM for 8 animals per group.
Lesions of the striatum were induced with 3-NP in adult (16 week old; 30 g) male C57BL/6 mice (Harlan Ibérica, Barcelona, Spain). To this end, mice were subjected to seven intraperitoneal (i.p.) injections of 3NP (one injection each 12 hours) at a dose of 50 mg/kg (prepared in phosphate-buffered saline) for 3 days. These animals and their respective non-lesioned controls were used for pharmacological studies with compounds CBG-Q (compound I) and with compounds III and XII (FIG. 9). At least 6-8 animals were used per experimental group. Treatments consisted of four i.p. injections of the compounds at the indicated doses (one injection each 24 hours), or vehicle (DMSO 0.2%, BSA 5% in PBS) 30 min before the injections of 3NP. All animals were euthanized 12 hours after the last 3NP injection. Once euthanized, animals were dissected and their brains were rapidly removed. The right hemisphere was used to dissect the striatum, which was quickly frozen in RNAlater (Sigma-Aldrich, Germany) to analyzed inflammatory markers were by Real Time PCR. The left hemisphere was fixed in fresh 4% paraformaldehyde (in 0.1M phosphate buffered-saline) for 48 hours at 4° C. and embedded in paraffin wax for histological analysis. Mice were subjected to behavioral tests for determining their neurological status. We evaluated the general locomotor activity, the hindlimb clasping and dystonia, and the truncal dystonia. All behavioral tests were conducted prior to drug injections to avoid acute effects of the compounds under investigation.

[3] = tested on: EAE mice; test: Experimental autoimmune encephalomyelitis (EAE), clinical score; type: in vivo, C57BL/6 mice
Protocol: C57BL/6 mice were immunized with MOG35-55 and their clinical score evaluated daily. Mice were treated daily with compound (III) (10 mg/kg) on day 6 post-immunization and the 21 following days. […] Values are expressed as means±SEM for 10 animals per group.
C57BL/6 mice were immunized with MOG35-55 and their clinical score evaluated daily. Mice were treated daily with compound (XII) (5 mg/kg) on day 6 post-immunization and the 21 following days. […] Values are expressed as means±SEM for 6 animals per group.
EAE was induced in female C57BL/6 mice at 6-8 weeks of age by subcutaneous immunization with myelin oligodendrocyte glycoprotein polypeptide (MOG35-55) (300 μg) and 200 μg of Mycobacterium tuberculosis (H37Ra Difco, Franklin Lakes, N.J., USA) in a 1:1 mix with […] Freund's adjuvant (CFA, Sigma-Aldrich, Madrid, Spain). On the same day and 2 days later, mice were injected intraperitoneally (ip) with 200 ng of pertussis toxin (Sigma-Aldrich, Madrid, Spain) in 0.1 ml PBS. […] Treatment started at day 6 post-immunization (p.i.) and consisted in daily injections of compounds III (FIG. 6) and XII (FIG. 8) at the indicated doses or of the vehicle alone (DMSO/PBS) for the following 21 days. The mice were examined daily for clinical signs of EAE and disease scores were measured as follows: 0, no disease; 1, limp tail; 2, limp tail and hind limb weakness; 3, hind limb paralysis; 4, hind limb and front limb paralysis; 5, moribund and death. All animals were sacrificed 28 days (p.i.) for further analysis. Once sacrificed, animals were dissected and their spinal cords were rapidly removed and quickly frozen in RNAlater (Sigma-Aldric, Germany).

[4] = tested on: PPARg; test: PPARg transactivation assay in human dermal primary fibroblasts; type: cell-based; settings: 6 h treatment, FIG. 2
Text: FIG. 2. PPARg Transactivation Assays in Human Dermal Primary Fibroblasts.

CCCCCC1=C(NCC)C(=O)C(C/C=C(\C)CCC=C(C)C)=C(O)C1=O [Compound III, 6-(3,7-dimethyl-octa-2,6-dienyl)-5-hydroxy-3-pentyl-2-ethylamino-[1,4]benzoquinone]
expression of proinflammatory genes Ccl2, iNOs, TNFα, IFNg, IL-1b and IL-17 in the spinal cord [1]: significant decrease
clinical symptoms induced by 3-NP intoxication (hind limb clasping, locomotor activity, hind limb dystonia, truncal dystonia) [2]: clearly alleviates such symptomatology
clinical manifestations of EAE ([3]; 10 mg/kg daily from day 6 post-immunization for 21 days, FIG. 6): clearly attenuated
EAE clinical score throughout the experiment (day 6-day 28) ([3]; 10 mg/kg daily, score scale 0-5, vehicle-treated mice reached 2.5): < 1.3
day on which the disease peaked ([3]; 10 mg/kg daily, vehicle-treated mice peaked by day 16): 17 day post-injection
PPARg activation (fold) compared with CBG-Q [4]: higher efficiency than CBG-Q
